Reference: ChEMBL document CHEMBL1157287, “Steroidal saponins from the rhizomes of Polygonatum sibiricum” (J Nat Prod, 2006)

Tested on: MCF7
Experiment: Cytotoxicity against human MCF7 cells by MTT assay
Type: functional, cell-based

Row | SMILES | IC50 [µM]
1 | CC(=O)O[C@@H]1C[C@H](O[C@@H]2O[C@H](C)[C@H](O[C@@H]3O[C@H](CO)[C@@H](O)[C@H](O)[C@H]3O[C@@H]3O[C@H](CO)[C@@H](O)[C@H](O)[C@H]3O)[C@H](O)[C@H]2O)CC2=CC[C@H]3[C@@H]4C[C@@H]5O[C@@]6(OC[C@@H](C)[C@@H](O)[C@@H]6O)[C@@H](C)[C@@H]5[C@@]4(C)CC[C@@H]3[C@]21C | > 100
2 | CC1CC[C@@]2(OC1)O[C@H]1C[C@H]3[C@@H]4CC=C5C[C@@H](O[C@@H]6O[C@H](CO)[C@H](O[C@@H]7O[C@H](CO)[C@@H](O)[C@H](O)[C@H]7O[C@@H]7O[C@H](CO)[C@@H](O)[C@H](O)[C@H]7O)[C@H](O)[C@H]6O)CC[C@]5(C)[C@H]4CC[C@]3(C)[C@H]1[C@@H]2C (mixture of isomers) | 24.3
